Values quoted from earlier work as cited in PMC12580772, “A First-in-Human Study of ATM Inhibitor Lartesertib as Monotherapy in Patients with Advanced Solid Tumors” (Clinical Cancer Research, 2025).

System: patient-derived xenograft models of triple-negative breast cancer
Design: method as in PMID 37079339
Details: single-agent gartisertib; cited from earlier work

## Nc1nn2cc(F)cnc2c1C(=O)Nc1cncc(F)c1N1CCC(C(=O)N2CCN(C3COC3)CC2)CC1 [gartisertib, reference compound]
  Tumor control rate: 27%
